How the values were obtained:
Assay in all cases: Kinase selectivity, scanMAX Kinase assay panel (DiscoverX), % control at 1 uM
Type in all cases: binding
[1] = target: T1, scanMAX Kinase assay panel (Homo sapiens, UniProt O75716); conditions: STK16; 1 uM; read-out: Percent Control (%)
T1 construct: purchased DiscoverX
Method in brief: (§1)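 Each kinase was first exposed to the test compound at 1 uM in DMSO. Signal was then normalised to positive and negative controls to give % control. Finally, any enzyme showing <35% control was judged inhibited.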

[2] = target: T2, scanMAX Kinase assay panel (Homo sapiens, UniProt O95819); conditions: MAP4K4; 1 uM; read-out: Percent Control (%)
T2 construct: purchased DiscoverX
Method in brief: as §1

[3] = target: T3, scanMAX Kinase assay panel (Homo sapiens, UniProt P00519, E255K); conditions: ABL1 (E255K)-phosphorylated; 1 uM; read-out: Percent Control (%)
T3 construct: purchased DiscoverX
Method in brief: as §1

[4] = target: T4, scanMAX Kinase assay panel (Homo sapiens, UniProt P29323); conditions: EPHB2; 1 uM; read-out: Percent Control (%)
T4 construct: purchased DiscoverX
T4 sequence (P29323 19-1055): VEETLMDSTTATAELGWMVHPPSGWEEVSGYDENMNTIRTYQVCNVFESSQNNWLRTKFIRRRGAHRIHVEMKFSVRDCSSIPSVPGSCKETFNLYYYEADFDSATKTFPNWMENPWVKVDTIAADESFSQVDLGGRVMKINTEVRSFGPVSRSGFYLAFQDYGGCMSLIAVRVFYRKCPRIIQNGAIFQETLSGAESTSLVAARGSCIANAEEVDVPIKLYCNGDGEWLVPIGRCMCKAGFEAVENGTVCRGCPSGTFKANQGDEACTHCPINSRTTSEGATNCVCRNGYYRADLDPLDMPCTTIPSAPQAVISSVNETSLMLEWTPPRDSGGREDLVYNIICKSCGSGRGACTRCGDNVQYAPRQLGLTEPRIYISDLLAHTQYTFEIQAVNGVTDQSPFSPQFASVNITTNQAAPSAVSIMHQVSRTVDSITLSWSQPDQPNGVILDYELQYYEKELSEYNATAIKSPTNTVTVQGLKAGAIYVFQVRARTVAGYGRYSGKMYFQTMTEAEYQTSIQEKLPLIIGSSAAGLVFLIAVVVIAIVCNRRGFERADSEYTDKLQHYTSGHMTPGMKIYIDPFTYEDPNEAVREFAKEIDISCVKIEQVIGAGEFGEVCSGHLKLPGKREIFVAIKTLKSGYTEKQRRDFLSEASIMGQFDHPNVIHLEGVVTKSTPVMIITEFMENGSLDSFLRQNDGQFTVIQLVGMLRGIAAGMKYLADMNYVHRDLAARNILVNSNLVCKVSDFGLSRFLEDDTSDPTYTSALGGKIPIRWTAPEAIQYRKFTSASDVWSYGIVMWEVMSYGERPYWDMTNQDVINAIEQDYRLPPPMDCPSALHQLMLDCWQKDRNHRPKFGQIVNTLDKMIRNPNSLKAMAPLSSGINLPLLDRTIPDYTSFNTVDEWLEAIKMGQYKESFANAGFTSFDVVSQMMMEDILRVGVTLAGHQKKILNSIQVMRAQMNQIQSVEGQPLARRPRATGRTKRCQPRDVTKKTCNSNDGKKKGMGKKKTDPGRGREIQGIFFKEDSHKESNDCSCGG
Method in brief: as §1

[5] = target: T5, scanMAX Kinase assay panel (Homo sapiens, UniProt P53667); conditions: LIMK1; 1 uM; read-out: Percent Control (%)
T5 construct: purchased DiscoverX
T5 sequence (P53667 whole entry): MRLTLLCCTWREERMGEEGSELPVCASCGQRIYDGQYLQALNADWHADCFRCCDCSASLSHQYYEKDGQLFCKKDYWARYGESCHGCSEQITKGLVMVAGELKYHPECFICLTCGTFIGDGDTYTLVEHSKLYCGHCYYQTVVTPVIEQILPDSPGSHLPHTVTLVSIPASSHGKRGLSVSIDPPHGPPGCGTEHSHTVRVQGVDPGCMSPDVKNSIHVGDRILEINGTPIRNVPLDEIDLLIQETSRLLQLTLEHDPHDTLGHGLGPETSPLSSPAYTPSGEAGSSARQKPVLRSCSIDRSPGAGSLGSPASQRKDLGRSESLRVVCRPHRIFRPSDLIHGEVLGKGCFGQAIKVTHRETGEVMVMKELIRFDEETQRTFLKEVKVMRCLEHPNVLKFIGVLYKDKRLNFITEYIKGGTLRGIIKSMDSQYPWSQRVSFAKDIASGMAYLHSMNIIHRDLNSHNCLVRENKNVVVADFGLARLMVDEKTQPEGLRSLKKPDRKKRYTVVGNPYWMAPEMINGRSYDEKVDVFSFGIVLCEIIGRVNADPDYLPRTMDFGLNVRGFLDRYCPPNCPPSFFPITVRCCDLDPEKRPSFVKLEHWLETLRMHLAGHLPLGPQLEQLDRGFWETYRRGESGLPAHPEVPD
Method in brief: as §1

[6] = target: T6, scanMAX Kinase assay panel (Homo sapiens, UniProt P78356); conditions: PIP5K2B; 1 uM; read-out: Percent Control (%)
T6 construct: purchased DiscoverX
T6 sequence (P78356 1-416): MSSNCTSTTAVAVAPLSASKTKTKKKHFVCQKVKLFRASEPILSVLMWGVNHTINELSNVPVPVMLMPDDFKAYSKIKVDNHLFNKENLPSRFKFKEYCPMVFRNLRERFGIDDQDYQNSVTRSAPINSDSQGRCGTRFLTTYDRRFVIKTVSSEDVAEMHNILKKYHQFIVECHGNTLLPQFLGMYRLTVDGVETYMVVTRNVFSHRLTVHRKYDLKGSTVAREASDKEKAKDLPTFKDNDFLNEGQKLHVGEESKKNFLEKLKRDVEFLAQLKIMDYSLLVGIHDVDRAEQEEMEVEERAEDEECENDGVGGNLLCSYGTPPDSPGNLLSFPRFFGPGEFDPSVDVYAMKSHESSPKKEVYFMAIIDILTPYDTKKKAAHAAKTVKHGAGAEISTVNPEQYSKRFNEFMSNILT
Method in brief: as §1

[7] = target: T7, scanMAX Kinase assay panel (Homo sapiens, UniProt P78368); conditions: CSNK1G2; 1 uM; read-out: Percent Control (%)
T7 construct: purchased DiscoverX
T7 sequence (P78368 whole entry): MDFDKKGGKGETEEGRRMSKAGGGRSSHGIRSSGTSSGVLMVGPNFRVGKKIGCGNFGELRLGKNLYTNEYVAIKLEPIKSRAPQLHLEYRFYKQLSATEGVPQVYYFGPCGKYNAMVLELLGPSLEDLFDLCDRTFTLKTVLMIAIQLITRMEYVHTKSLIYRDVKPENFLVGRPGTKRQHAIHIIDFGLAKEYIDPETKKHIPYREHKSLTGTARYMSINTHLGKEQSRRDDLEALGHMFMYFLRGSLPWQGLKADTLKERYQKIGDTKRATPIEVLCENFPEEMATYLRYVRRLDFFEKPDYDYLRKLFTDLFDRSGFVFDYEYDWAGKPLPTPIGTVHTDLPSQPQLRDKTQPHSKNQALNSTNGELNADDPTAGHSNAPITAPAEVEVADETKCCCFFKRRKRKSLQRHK
Method in brief: as §1

[8] = target: T8, scanMAX Kinase assay panel (Homo sapiens, UniProt Q05397); conditions: FAK; 1 uM; read-out: Percent Control (%)
T8 construct: purchased DiscoverX
T8 sequence (Q05397 whole entry): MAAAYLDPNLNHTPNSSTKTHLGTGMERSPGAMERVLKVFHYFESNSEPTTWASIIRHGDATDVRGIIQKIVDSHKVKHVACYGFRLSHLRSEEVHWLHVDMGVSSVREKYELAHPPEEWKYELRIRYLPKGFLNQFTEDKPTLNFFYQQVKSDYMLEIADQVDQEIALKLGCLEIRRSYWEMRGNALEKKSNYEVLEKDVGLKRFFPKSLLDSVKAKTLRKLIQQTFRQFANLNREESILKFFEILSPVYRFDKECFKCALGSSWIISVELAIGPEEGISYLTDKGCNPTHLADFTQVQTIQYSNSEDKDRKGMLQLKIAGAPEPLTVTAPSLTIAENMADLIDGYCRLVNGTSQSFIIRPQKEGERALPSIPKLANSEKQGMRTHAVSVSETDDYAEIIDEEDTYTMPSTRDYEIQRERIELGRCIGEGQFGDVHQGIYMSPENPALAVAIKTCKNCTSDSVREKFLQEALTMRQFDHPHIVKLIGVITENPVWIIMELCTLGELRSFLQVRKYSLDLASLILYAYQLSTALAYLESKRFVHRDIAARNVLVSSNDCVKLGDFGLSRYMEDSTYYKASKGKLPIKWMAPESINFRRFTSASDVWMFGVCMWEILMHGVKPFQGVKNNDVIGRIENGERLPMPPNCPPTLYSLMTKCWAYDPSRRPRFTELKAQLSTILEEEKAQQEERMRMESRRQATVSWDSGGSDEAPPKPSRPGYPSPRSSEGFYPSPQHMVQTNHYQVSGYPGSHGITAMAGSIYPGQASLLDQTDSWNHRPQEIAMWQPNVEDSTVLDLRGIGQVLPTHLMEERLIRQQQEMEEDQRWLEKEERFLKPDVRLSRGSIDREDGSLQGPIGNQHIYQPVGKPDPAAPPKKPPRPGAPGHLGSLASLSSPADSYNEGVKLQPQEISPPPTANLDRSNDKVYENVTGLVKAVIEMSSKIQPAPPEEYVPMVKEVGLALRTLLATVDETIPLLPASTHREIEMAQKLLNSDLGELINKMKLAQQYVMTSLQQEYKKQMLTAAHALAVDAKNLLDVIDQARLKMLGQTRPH
Method in brief: as §1

[9] = target: T9, scanMAX Kinase assay panel (Homo sapiens, UniProt Q14680); conditions: MELK; 1 uM; read-out: Percent Control (%)
T9 construct: purchased DiscoverX
Method in brief: as §1

[10] = target: T10, scanMAX Kinase assay panel (Homo sapiens, UniProt Q15375); conditions: EPHA7; 1 uM; read-out: Percent Control (%)
T10 construct: purchased DiscoverX
T10 sequence (Q15375 28-998): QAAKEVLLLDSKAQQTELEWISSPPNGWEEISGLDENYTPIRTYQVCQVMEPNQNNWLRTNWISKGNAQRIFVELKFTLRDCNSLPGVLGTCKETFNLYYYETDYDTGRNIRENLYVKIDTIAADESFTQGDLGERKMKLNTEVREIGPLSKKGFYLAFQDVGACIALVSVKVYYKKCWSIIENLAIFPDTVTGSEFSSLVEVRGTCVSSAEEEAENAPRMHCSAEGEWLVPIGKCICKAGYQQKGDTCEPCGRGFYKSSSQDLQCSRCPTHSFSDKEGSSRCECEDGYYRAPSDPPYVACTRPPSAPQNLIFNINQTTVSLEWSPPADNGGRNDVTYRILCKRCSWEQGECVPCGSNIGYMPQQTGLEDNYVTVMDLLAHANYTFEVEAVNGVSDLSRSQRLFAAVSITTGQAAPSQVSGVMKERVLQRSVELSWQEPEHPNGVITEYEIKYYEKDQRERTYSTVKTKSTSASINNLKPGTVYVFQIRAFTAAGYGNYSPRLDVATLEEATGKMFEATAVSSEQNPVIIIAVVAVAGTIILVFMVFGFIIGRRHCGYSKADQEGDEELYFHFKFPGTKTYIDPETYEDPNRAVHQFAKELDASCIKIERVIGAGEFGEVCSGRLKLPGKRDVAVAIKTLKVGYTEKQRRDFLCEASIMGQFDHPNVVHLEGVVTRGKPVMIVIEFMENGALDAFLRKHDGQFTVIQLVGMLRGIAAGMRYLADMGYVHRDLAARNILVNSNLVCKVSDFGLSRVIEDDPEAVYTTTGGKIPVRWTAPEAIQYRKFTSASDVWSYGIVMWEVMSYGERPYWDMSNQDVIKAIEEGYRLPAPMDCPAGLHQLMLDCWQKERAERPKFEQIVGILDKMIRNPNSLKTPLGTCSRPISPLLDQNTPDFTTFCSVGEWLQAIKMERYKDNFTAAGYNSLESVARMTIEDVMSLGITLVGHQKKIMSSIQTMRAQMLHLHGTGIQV
Method in brief: as §1

[11] = target: T11, scanMAX Kinase assay panel (Homo sapiens, UniProt Q15759); conditions: p38-beta; 1 uM; read-out: Percent Control (%)
T11 construct: purchased DiscoverX
T11 sequence (Q15759 whole entry): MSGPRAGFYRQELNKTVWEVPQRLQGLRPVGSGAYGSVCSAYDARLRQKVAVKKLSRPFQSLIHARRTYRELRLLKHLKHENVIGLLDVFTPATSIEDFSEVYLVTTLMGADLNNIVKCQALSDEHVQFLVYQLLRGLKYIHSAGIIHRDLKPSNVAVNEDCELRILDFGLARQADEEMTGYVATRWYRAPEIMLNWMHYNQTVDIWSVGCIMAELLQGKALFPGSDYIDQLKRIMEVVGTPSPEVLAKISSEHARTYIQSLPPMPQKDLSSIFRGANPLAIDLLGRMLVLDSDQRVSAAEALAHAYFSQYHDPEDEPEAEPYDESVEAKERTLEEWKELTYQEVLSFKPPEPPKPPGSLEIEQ
Method in brief: as §1

[12] = target: T12, scanMAX Kinase assay panel (Homo sapiens, UniProt Q16659); conditions: ERK3; 1 uM; read-out: Percent Control (%)
T12 construct: purchased DiscoverX
T12 sequence (Q16659 whole entry): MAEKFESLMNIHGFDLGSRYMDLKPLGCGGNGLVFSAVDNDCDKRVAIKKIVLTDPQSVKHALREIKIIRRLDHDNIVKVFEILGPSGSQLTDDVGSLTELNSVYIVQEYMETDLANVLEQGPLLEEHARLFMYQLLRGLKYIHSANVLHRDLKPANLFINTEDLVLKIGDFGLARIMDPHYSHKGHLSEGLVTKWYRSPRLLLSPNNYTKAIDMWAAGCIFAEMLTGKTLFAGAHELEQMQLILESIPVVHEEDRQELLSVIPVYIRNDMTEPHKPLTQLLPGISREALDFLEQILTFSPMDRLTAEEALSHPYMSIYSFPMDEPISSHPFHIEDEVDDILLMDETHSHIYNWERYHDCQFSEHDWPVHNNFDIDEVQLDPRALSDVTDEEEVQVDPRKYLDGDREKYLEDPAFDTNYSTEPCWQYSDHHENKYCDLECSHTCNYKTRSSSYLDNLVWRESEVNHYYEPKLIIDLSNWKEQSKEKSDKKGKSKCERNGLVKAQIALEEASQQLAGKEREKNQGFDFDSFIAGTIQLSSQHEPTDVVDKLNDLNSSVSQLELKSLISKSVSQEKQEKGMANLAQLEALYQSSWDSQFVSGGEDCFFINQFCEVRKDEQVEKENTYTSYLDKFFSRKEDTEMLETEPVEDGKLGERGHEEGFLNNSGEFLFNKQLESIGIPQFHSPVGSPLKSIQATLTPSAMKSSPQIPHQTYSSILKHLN
Method in brief: as §1

[13] = target: T13, scanMAX Kinase assay panel (Homo sapiens, UniProt Q9Y2H1); conditions: NDR2; 1 uM; read-out: Percent Control (%)
T13 construct: purchased DiscoverX
T13 sequence (Q9Y2H1 whole entry): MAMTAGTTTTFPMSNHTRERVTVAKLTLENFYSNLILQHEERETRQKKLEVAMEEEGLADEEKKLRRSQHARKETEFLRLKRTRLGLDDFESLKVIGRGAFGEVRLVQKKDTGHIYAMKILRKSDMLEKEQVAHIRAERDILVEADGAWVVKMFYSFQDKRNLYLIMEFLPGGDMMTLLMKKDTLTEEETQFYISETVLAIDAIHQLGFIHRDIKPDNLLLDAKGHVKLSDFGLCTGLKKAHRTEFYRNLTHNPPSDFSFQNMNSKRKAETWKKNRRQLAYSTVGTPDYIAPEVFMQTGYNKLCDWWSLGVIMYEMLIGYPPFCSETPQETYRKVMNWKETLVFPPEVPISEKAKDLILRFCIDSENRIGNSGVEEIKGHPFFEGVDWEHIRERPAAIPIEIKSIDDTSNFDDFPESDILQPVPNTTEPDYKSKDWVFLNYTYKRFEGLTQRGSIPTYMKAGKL
Method in brief: as §1

[14] = target: T14, scanMAX Kinase assay panel (Homo sapiens, UniProt Q9Y463); conditions: DYRK1B; 1 uM; read-out: Percent Control (%)
T14 construct: purchased DiscoverX
Method in brief: as §1

T1 sequence (O75716 whole entry): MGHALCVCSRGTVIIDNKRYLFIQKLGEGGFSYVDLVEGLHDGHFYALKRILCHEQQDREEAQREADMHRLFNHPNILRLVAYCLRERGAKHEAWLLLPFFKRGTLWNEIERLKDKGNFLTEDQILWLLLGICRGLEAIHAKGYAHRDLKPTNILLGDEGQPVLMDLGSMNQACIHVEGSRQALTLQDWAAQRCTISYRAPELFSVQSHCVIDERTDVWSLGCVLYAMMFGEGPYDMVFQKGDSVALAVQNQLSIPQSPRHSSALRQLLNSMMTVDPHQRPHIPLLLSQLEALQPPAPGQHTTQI

SMILES | remaining binding at 1 µM [1] [%] | remaining binding at 1 µM [2] [%] | remaining binding at 1 µM [3] [%] | remaining binding at 1 µM [4] [%] | remaining binding at 1 µM [5] [%] | remaining binding at 1 µM [6] [%] | remaining binding at 1 µM [7] [%] | remaining binding at 1 µM [8] [%] | remaining binding at 1 µM [9] [%] | remaining binding at 1 µM [10] [%] | remaining binding at 1 µM [11] [%] | remaining binding at 1 µM [12] [%] | remaining binding at 1 µM [13] [%] | remaining binding at 1 µM [14] [%]
Cc1ccc(C(=O)Nc2ccc(CN3CCN(C)CC3)c(C(F)(F)F)c2)cc1C#Cc1cnc2c(Nc3cnn(C)c3)cccn12 [Example 1, 4-methyl-3-((8-((1-methyl-1H-pyrazol-4-yl)amino)imidazo[1,2-a]pyridin-3-yl)ethynyl)-N-(4-((4-methylpiperazin-1-yl)methyl)-3-(trifluoromethyl)phenyl)benzamide] | 38 | 1 | 0 | 0 | 4 | 82 | 91 | 39 | 9 | 5 | 0 | 100 | 23 | 93
Cc1cn(-c2cc(NC(=O)c3ccc(C)c(C#Cc4cnc5c(Nc6cnn(C)c6)cccn45)c3)cc(C(F)(F)F)c2)cn1 [Example 12, 4-methyl-N-(3-(4-methyl-1H-imidazol-1-yl)-5-(trifluoromethyl)phenyl)-3-((8-((1-methyl-1H-pyrazol-4-yl)amino)imidazo[1,2-a]pyridin-3-yl)ethynyl)benzamide] | 70 | 4 | 8 | 27 | 38 | 100 | 94 | 10 | 98 | 69 | 6 | 94 | 84 | 100
Cc1ccc(NC(=O)C2(C(=O)Nc3ccc(F)cc3)CC2)cc1C#Cc1cnc2c(Nc3cnn(C(C)C)c3)cccn12 [Example 78] | 99 | 99 | 84 | 98 | 100 | 79 | 100 | 96 | 91 | 100 | 88 | 100 | 98 | 99

Source: patent US10870647B2, “Imidazopyridine derivative, method for preparing same, and pharmaceutical composition containing same as active ingredient for preventing or treating cancer” (DAEGU-GYEONGBUK MEDICAL INNOVATION FOUNDATION, priority 2016, dated 2020)
